Patent publication US20250340561A1, “QUINAZOLINE COMPOUND FOR INDUCING DEGRADATION OF G12D MUTANT KRAS PROTEIN” (Astellas Pharma Inc., priority 2021, published 2025)

Target: T1, KRAS G12D (Homo sapiens, UniProt P01116, G12D)
T1 construct: host or cells: AsPC-1 human pancreatic cancer cells
Test: Test Example 1-2: KRAS degradation action in AsPC-1, Cell ELISA
Assay type: cell-based
Conditions: AsPC-1 cells, overnight treatment, corrected with β-actin, 0% = 10 μM Example No. 26 (Example No. 8 for Example Nos. 74 and 75)
Experimental: Test Example 1-2: Evaluation of KRAS Degradation Action on Human G12D Mutant KRAS-Positive Pancreatic Cancer Line AsPC-1
The KRAS degradation action of test compounds was evaluated by measuring the expression levels of KRAS G12D by Cell ELISA.
[…] As for the cell culture conditions, a RPMI 1640 medium containing 10% fetal bovine serum was used in the presence of 5% CO2 at 37° C. The next day, the test compounds (10 points having final concentrations in the range of 10 μM to 0.3 nM), the compound of Example No. 26 (Example No. 8 for Example Nos. 74 and 75) of a final concentration of 10 μM as a positive control and DMSO, which was the solvent for the test compounds, as a negative control were diluted 500-fold with a fresh medium and were added at 20 μL per well. The cells were cultured overnight.
The next day, the culture supernatant was removed, and 4% paraformaldehyde phosphate buffer (from FUJIFILM Wako Pure Chemical Corporation) was added at 20 μL per well. The plate was allowed to stand for 30 minutes at room temperature to thus immobilize the cells. Then, the supernatant was removed, and 0.1% Triton X-100 (from Amersham Biosciences)-containing PBS was added at 20 μL per well. After allowing to stand for 10 minutes at room temperature, the supernatant was removed. PBS was added at 25 μL per well, and the supernatant was removed to thus wash each well. The washing was performed twice in total. Next, the supernatant was removed, and 0.5% sodium dodecyl sulfate (SDS; from Invitrogen)-containing PBS was added at 20 μL per well. After allowing to stand at room temperature for 10 minutes, the supernatant was removed by centrifugation (using a centrifugal dehydrator machine, the supernatant was removed by the same method hereinafter). PBS was added at 25 μL per well, and the supernatant was removed to thus wash each well. The washing was performed twice in total. The supernatant was removed by centrifugation, and a blocking solution (Intercept Blocking Buffer) was added at 20 μL per well. After allowing to stand for 30 minutes at room temperature, the supernatant was removed by centrifugation, and a solution obtained by diluting an anti-Ras (G12D Mutant Specific) antibody and an anti-3-actin antibody 1,000-fold with a blocking solution was added at 20 μL per well as a primary antibody. The plate was allowed to stand overnight at 4° C.
The next day, the plate was centrifuged to remove the supernatant. PBS was added at […], and the supernatant was removed to thus wash each well. The washing was performed twice in total. The supernatant was removed by centrifugation, and a solution obtained by diluting Donkey anti-Mouse IgG H&L (TRDye 680RD) (from Li—COR Biosciences) and Goat anti-Rabbit IgG H&L (IRDye 800CW) (from Li—COR Biosciences) 1,000-fold with a blocking solution was added at 20 μL per well as a secondary antibody. After allowing to stand for 1 hour at room temperature, the supernatant was removed. PBS was added at 25 μL per well, and the supernatant was removed to thus wash each well. The washing was performed twice in total. After removing the supernatant by centrifuging the plate, the plate was dried as it was with air at room temperature for 2 hours or more, and the 700-nm and 800-nm fluorescent signals were measured with Aerius (from LI-COR Biosciences).
With the signaling value at the time of addition of DMSO corrected with the signaling value of β-actin taken as 100% and with the signaling value at the time of addition of 10 μM of the compound of Example No. 26 taken as 0%, the 50% degradation values (DC50) of the amounts of KRAS were calculated by Sigmoid-Emax model nonlinear regression analysis. The molecular weights of the test compounds were calculated as the molecular weights of the trihydrochloride for Example No. 30, the tetrahydrochloride for Example No. 46 and the free forms forming no salt for the remaining Example Nos. The results for some test compounds of the formula (I) are shown in Table 2.

T1 sequence (P01116 1-188 isoform P01116-2 G12D): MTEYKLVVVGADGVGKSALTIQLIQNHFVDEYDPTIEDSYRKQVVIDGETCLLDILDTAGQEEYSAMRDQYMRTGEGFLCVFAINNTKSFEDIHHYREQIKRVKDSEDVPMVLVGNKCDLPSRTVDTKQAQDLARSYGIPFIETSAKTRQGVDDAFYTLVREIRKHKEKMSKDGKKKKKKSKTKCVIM

Row | DC50 | SMILES
1 | 1 µM | Cc1ncsc1-c1ccc([C@H](CO)NC(=O)[C@@H]2C[C@@H](O)CN2C(=O)[C@@H](NC(=O)CCN(C)C(=O)c2ccc(COc3c(-c4c(C)c(F)cc5[nH]ncc45)c(C4CC4)cc4c(N5C[C@@H]6C[C@H]5CN6)nc(OC5CCOCC5)nc34)cc2)C(C)C)cc1 [Example 74]
2 | 5.89 µM | Cc1ncsc1-c1ccc([C@H](CO)NC(=O)[C@@H]2C[C@@H](O)CN2C(=O)[C@@H](NC(=O)C[C@@H]2CCN(C(=O)c3ccc(COc4c(-c5c(C)c(F)cc6[nH]ncc56)c(C5CC5)cc5c(N6C[C@@H]7C[C@H]6CN7)nc(OC6CCOCC6)nc45)cc3)C2)C(C)C)cc1 [Example 75]
